Measurements as given in patent US20250255841A1, “METHODS FOR TREATING CYTOKINE STORM ASSOCIATED WITH ACINETOBACTER BAUMANNII INFECTIONS” (City University of Hong Kong, priority 2024, published 2025).

How the values were obtained:
ATCC17978-infected mice = assay: Mouse sepsis infection model with immunosuppressive drug treatment (survival, body weight, spleen weight); format: in vivo, C57BL/6 mice; conditions: for survival rate of ATCC17978-infected mice: intraperitoneal drug
Description: (§1) The mouse infection model was employed to detect the immune response induced by Ab in vivo. Mice of the same sex were randomly divided into several groups (5 animals per group) and then infected by 7.5×10^7 CFU of Ab test strain by intraperitoneal administration. The body weight of all mice was recorded before infection and at 12 hours post-infection. Survival of the test animals was determined by recording the mortality rate during the 120-hour experiment. At 12 hpi, the mice were sacrificed, and the organs were collected and homogenized for bacterial load measurement and analysis by flow cytometry, RNAseq, scRNAseq and qRT-PCR assay. The serum of the mice was collected for ELISA detection. Animal experiments were conducted at least twice to assess the consistency of the data.
To test the effect of NSAIDs treatment, the mice were administered intraperitoneal injections of 50 mg/kg NPXS and 100 mg/kg ASA 1 h before ATCC 17978 infection; a group of mice that served as control received equivalent volumes of PBS. The survival rate, health status, and weight of the test animals were recorded during the next 120 hours.

RAW264.7 cells = assay: Inhibitor treatment in RAW264.7 infected with ATCC 17978, flow cytometry of CD86/CD206; format: cell-based, mouse; conditions: RAW264.7 pretreated 1 h, Ab MOI=5 for 6 h; compared to cells not treated with the inhibitors
Description: RAW264.7 cells were pre-treated for 1 h with the culture medium, C29 (100 μM)^22, TJ-M2010-5 (20 μM)^23 and JSH-23 (30 μM)^24 (MCE, NJ, USA) respectively, and then stimulated with Ab (MOI=5) for 6 h in the presence of the culture medium, C29, TJ-M2010-5 or JSH-23. Cell supernatants were collected for subsequent cytokine measurement. RAW264.7 cells were incubated with fluorescently labeled antibodies against mouse F4/80, CD206, and CD86 for flow cytometric analysis, following washes three times with PBS and resuspension in PBS containing 2.5% FBS.

[1] = test system: CD11b+F4/80+ macrophages in the lungs of Ab-infected mice
Description: as §1

[2] = test system: serum cytokine production (TNF-α, IL-6 and IL-1b); conditions: Ab-infected mice, ELISA
Description: as §1
Blood was collected from the test mice by orbital bleeding and clotted at RT for 1 h. Blood was subsequently subjected to centrifugation at 10,000 g for 25 min at 4° C. Serum was divided into tubes and stored immediately at −80° C. until cytokine analysis.
The enzyme-linked immunosorbent assay (ELISA) was used to perform cytokine analysis in mouse serum and cell supernatants. Mouse serum was extracted as described above. Pre-treated macrophage cell supernatants were harvested and centrifuged to remove impurities. The levels of IL1β, IL6, and TNF-α were measured by using the IL-1 beta, IL-6 and TNF alpha Mouse Uncoated ELISA Kit (Thermo Fisher Scientific) according to the manufacturer's protocols, respectively.

[3] = test system: pro-inflammatory, COX and TLR2/Myd88/NF-κB signaling pathway-related genes
Description: as §1
Total RNA was extracted from the homogenized lung samples or RAW264.7 cells (ATCC, CA, USA) upon Ab infection, utilizing the TRIzol™ method (Thermo Fisher Scientific, MA, USA). Turbo DNA-free™ Kit (Invitrogen, CA, USA) was employed for removal of DNA contaminants. 1 μg purified mRNA was reverse transcribed into cDNA using SuperScript™ III First-Strand Synthesis SuperMix Kit (Invitrogen), with a 1:10 dilution for subsequent qRT-PCR analysis. The qRT-PCR was then performed on an ABI QuantStudio 7 Flex Real-Time PCR System (Applied Biosystems, CA, USA) by the PowerUP SYBR Green master mix (Applied Biosystems). The target gene transcription levels were quantified by the comparative Ct method and normalized to the expression level of glyceraldehyde-3-phosphate dehydrogenase (GADPH).
Total RNA extracted from lung samples was sequenced by Novogene Technology (Hong Kong SAR, China). Bioanalyzer 2100 system was used to measure RNA integrity (Agilent Technologies, CA, USA); the NEBNextUltra RNA Library Prep Kit (NEB, CA, USA) was employed to construct the cDNA libraries for Illumina sequencing. The index-coded samples clustering was carried out on a cBot Cluster Generation System by the TruSeq PE Cluster Kit v3-cBot-HS (Illumia, CA, Illumia). The libraries were sequenced on the Illumina Novaseq platform with paired-end 150 bp reads. HISAT2 was used for sequencing reads alignment. Fragments per gene were counted based on exon regions with FeatureCounts v.1.6.243. Differential mRNA level analysis was carried on by the DESeq2 R package. Unigenes with P.adjust<0.05 and |Log2Fold Change|>1 could be described as differentially expressed genes. Gene Enrichment Analysis was conducted for gene ontology enrichment analysis.

[4] = RNA-seq, ATCC 17978-infected mice after NPXS treatment, stated as suppressed

CC(=O)Oc1ccccc1C(=O)O [ASA, acetylsalicylic acid]
survival rate of ATCC17978-infected mice (ATCC17978-infected mice; at 24 h): 60%
anti-inflammatory potency recorded during Ab infection (ATCC17978-infected mice; comparison with naproxen): inferior to that of naproxen

Cn1cnc([N+](=O)[O-])c1Sc1ncnc2nc[nH]c12 [AzA, azathioprine]
survival rate of ATCC17978-infected mice (ATCC17978-infected mice; at 36 h): 40%

C[C@@H]1C[C@H]2[C@@H]3CCC4=CC(=O)C=C[C@]4(C)[C@@]3(F)[C@@H](O)C[C@]2(C)[C@@]1(O)C(=O)CO [DXMS, dexamethasone]
survival rate of ATCC17978-infected mice (ATCC17978-infected mice; at 48 h): 40%

Cc1ccc(NCCCc2ccccc2)c(N)c1 [JSH-23]
CD86 MFI levels (RAW264.7 cells): decrease
CD206 MFI levels (RAW264.7 cells): no difference

COc1ccc2cc([C@H](C)C(=O)O)ccc2c1 [NPXS, (+)-(S)-2-(6-methoxynaphthalen-2-yl) propanoic acid]
extent of body weight loss (ATCC17978-infected mice; 12 hpi, on average, infected untreated 6.7%): 3.6%
splenomegaly (percentage of spleen weight) (ATCC17978-infected mice; on average, infected untreated 0.48%): 0.38%
infected mice protected from death (ATCC17978-infected mice; within 120 h, 50 mg/kg i.p. 1 h before infection): 100%
CD86 MFI levels (M1 polarization) ([1]; F4/80+ macrophages in the lungs of Ab-infected mice): effectively attenuated
infiltration of CD11b+F4/80+ macrophages ([1]; lungs of Ab-infected mice): did not result in decrease
reduction of serum IL-1b production [2]: more than 50 fold
reduction of serum IL-6 production [2]: more than 50 fold
reduction of serum TNF-α production [2]: more than 50 fold
relative expression of TLR2/Myd88/NF-κB signaling pathway-related genes ([3]; ATCC 17978-infected mice after NPXS treatment): further reduction
transcript levels of most pro-inflammatory genes ([3]; Ab-infected mice, lungs): significantly lower
expression of COX1 gene, Log2FC [3, 4]: 0.4194
expression of COX2 gene, Log2FC [3, 4]: 0.2429

O=C(CCN1CCN(Cc2ccccc2)CC1)Nc1nc(-c2ccccc2)cs1 [TJ-M2010-5]
CD86 MFI levels (RAW264.7 cells): decrease
CD206 MFI levels (RAW264.7 cells): no difference
